Source: patent publication US9884842B2, “Combretastatin analogs” (The Board of Trustees of the University of Arkansas, priority 2013, dated 2018)

Columns and labels:
HL-60(TB) = test: cells; conditions: Homo sapiens; for GI50: HL-60; for CC50: HL-60, read-out: LC50
OVCAR-3 = test: cells; conditions: Homo sapiens; for GI50: OVCAR-3; for CC50: OVCAR-3, read-out: LC50
K-562 = test: NCI growth inhibition and cytotoxicity screen, Leukemia panel; conditions: Homo sapiens; for GI50: K562; for CC50: K562, read-out: LC50
MOLT-4 = test: as above; conditions: Homo sapiens; for GI50: MOLT-4; for CC50: MOLT-4, read-out: LC50
M14 = test: NCI growth inhibition and cytotoxicity screen, Melanoma panel; conditions: Homo sapiens; for GI50: M14; for CC50: M14, read-out: LC50
MDA-MB-435 = test: as above; conditions: Homo sapiens; for GI50: MDA-MB-435; for CC50: MDA-MB-435, read-out: LC50
UACC-62 = test: as above; conditions: Homo sapiens; for GI50: UACC-62; for CC50: UACC-62, read-out: LC50
SF-268 = test: NCI growth inhibition and cytotoxicity screen, CNS Cancer panel; conditions: Homo sapiens; for GI50: SF-268; for CC50: SF-268, read-out: LC50
SNB-19 = test: as above; conditions: Homo sapiens; for GI50: SNB-19; for CC50: SNB-19, read-out: LC50
SNB-75 = test: as above; conditions: Homo sapiens; for GI50: SNB-75; for CC50: SNB-75, read-out: LC50
U251 = test: as above; conditions: Homo sapiens; for GI50: U-251; for CC50: U-251, read-out: LC50
HOP-92 = test: NCI growth inhibition and cytotoxicity screen, Lung Cancer panel; conditions: Homo sapiens; for GI50: HOP-92; for CC50: HOP-92, read-out: LC50
NCI-H23 = test: as above; conditions: Homo sapiens; for GI50: NCI-H23; for CC50: NCI-H23, read-out: LC50
NCI-H322M = test: as above; conditions: Homo sapiens; for CC50: read-out: LC50
NCI-H460 = test: as above; conditions: Homo sapiens; for GI50: NCI-H460; for CC50: NCI-H460, read-out: LC50
COLO 205 = test: NCI growth inhibition and cytotoxicity screen, Colon Cancer panel; conditions: Homo sapiens; for GI50: COLO 205; for CC50: COLO 205, read-out: LC50
HCC-2998 = test: as above; conditions: Homo sapiens; for GI50: HCC 2998; for CC50: HCC 2998, read-out: LC50
HCT-15 = test: as above; conditions: Homo sapiens; for GI50: HCT-15; for CC50: HCT-15, read-out: LC50
786-0 = test: NCI growth inhibition and cytotoxicity screen, Renal Cancer panel; conditions: Homo sapiens; for GI50: 786-0; for CC50: 786-0, read-out: LC50
CAKI-1 = test: as above; conditions: Homo sapiens; for GI50: CAKI-1; for CC50: CAKI-1, read-out: LC50
TK-10 = test: as above; conditions: Homo sapiens; for GI50: TK-10; for CC50: TK-10, read-out: LC50
UO-31 = test: as above; conditions: Homo sapiens; for GI50: UO-31; for CC50: UO-31, read-out: LC50
MCF7 = test: NCI growth inhibition and cytotoxicity screen, Breast Cancer panel; conditions: Homo sapiens; for GI50: MCF7; for CC50: MCF7, read-out: LC50
MDA-MB-231/ATCC = test: as above; conditions: Homo sapiens; for GI50: MDA-MB-231; for CC50: MDA-MB-231, read-out: LC50
HS 578T = test: as above; conditions: Homo sapiens; for CC50: read-out: LC50
T-47D = test: as above; conditions: Homo sapiens, T47D; for CC50: read-out: LC50
IGROV1 = test: NCI growth inhibition and cytotoxicity screen, Ovarian Cancer panel; conditions: Homo sapiens; for GI50: IGROV-1; for CC50: IGROV-1, read-out: LC50
OVCAR-4 = test: as above; conditions: Homo sapiens; for GI50: OVCAR-4; for CC50: OVCAR-4, read-out: LC50
OVCAR-5 = test: as above; conditions: Homo sapiens; for GI50: OVCAR-5; for CC50: OVCAR-5, read-out: LC50
NCI/ADR-RES = test: as above; conditions: Homo sapiens; for CC50: read-out: LC50
SK-OV-3 = test: as above; conditions: Homo sapiens; for GI50: SK-OV-3; for CC50: SK-OV-3, read-out: LC50

SMILES: COc1cc(OC)cc(/C(C#N)=C/c2ccc3ccccc3n2)c1 [PNR-4-84, (Z)-2-(3,5-dimethoxyphenyl)-3-(quinolin-2-yl)acrylonitrile]
- GI50 (HL-60(TB)): 270 nM
- CC50 (HL-60(TB)): > 100000 nM
- GI50 (OVCAR-3): 309 nM
- CC50 (OVCAR-3): 34000 nM
- GI50 (K-562): 353 nM
- CC50 (K-562): > 100000 nM
- GI50 (MOLT-4): 419 nM
- CC50 (MOLT-4): > 100000 nM
- GI50 (M14): 360 nM
- CC50 (M14): > 100000 nM
- GI50 (MDA-MB-435): 147 nM
- CC50 (MDA-MB-435): > 100000 nM
- GI50 (UACC-62): 449 nM
- CC50 (UACC-62): > 100000 nM
- GI50 (SF-268): 476 nM
- CC50 (SF-268): > 100000 nM
- GI50 (SNB-19): 728 nM
- CC50 (SNB-19): > 100000 nM
- GI50 (SNB-75): 311 nM
- CC50 (SNB-75): > 100000 nM
- GI50 (U251): 425 nM
- CC50 (U251): > 100000 nM
- GI50 (HOP-92): 542 nM
- CC50 (HOP-92): > 100000 nM
- GI50 (NCI-H23): 983 nM
- CC50 (NCI-H23): > 100000 nM
- GI50 (NCI-H322M): 3020 nM
- CC50 (NCI-H322M): > 100000 nM
- GI50 (NCI-H460): 339 nM
- CC50 (NCI-H460): > 100000 nM
- GI50 (COLO 205): 374 nM
- CC50 (COLO 205): > 100000 nM
- GI50 (HCC-2998): 1420 nM
- CC50 (HCC-2998): > 100000 nM
- GI50 (HCT-15): 409 nM
- CC50 (HCT-15): > 100000 nM
- GI50 (786-0): 501 nM
- CC50 (786-0): > 100000 nM
- GI50 (CAKI-1): 318 nM
- CC50 (CAKI-1): > 100000 nM
- GI50 (TK-10): 3280 nM
- CC50 (TK-10): > 100000 nM
- GI50 (UO-31): 573 nM
- CC50 (UO-31): > 100000 nM
- GI50 (MCF7): 537 nM
- CC50 (MCF7): > 100000 nM
- GI50 (MDA-MB-231/ATCC): 1020 nM
- CC50 (MDA-MB-231/ATCC): > 100000 nM
- GI50 (HS 578T): 700 nM
- CC50 (HS 578T): > 100000 nM
- GI50 (T-47D): 1230 nM
- CC50 (T-47D): > 100000 nM
- GI50 (IGROV1): 958 nM
- CC50 (IGROV1): > 100000 nM
- GI50 (OVCAR-4): 788 nM
- CC50 (OVCAR-4): > 100000 nM
- GI50 (OVCAR-5): 716 nM
- CC50 (OVCAR-5): 42800 nM
- GI50 (NCI/ADR-RES): 283 nM
- CC50 (NCI/ADR-RES): > 100000 nM
- GI50 (SK-OV-3): 804 nM
- CC50 (SK-OV-3): > 100000 nM

SMILES: COc1cc(/C=C/c2nc3ccccc3s2)cc(OC)c1OC [Formula (I)(d)]
- GI50 (HL-60(TB)): 0.037 nM
- CC50 (HL-60(TB)): > 100000 nM
- GI50 (OVCAR-3): 0.069 nM
- CC50 (OVCAR-3): > 100000 nM
- GI50 (K-562): 0.041 nM
- CC50 (K-562): > 100000 nM
- GI50 (MOLT-4): 1.28 nM
- CC50 (MOLT-4): > 100000 nM
- GI50 (M14): 0.063 nM
- CC50 (M14): 48500 nM
- GI50 (MDA-MB-435): 0.024 nM
- CC50 (MDA-MB-435): 44600 nM
- GI50 (UACC-62): 0.05 nM
- CC50 (UACC-62): 55900 nM
- GI50 (SF-268): 0.56 nM
- CC50 (SF-268): > 100000 nM
- GI50 (SNB-19): 0.095 nM
- CC50 (SNB-19): > 100000 nM
- GI50 (SNB-75): 0.16 nM
- CC50 (SNB-75): > 100000 nM
- GI50 (U251): 0.88 nM
- CC50 (U251): > 100000 nM
- GI50 (HOP-92): 0.036 nM
- CC50 (HOP-92): 77400 nM
- GI50 (NCI-H23): 0.72 nM
- CC50 (NCI-H23): > 100000 nM
- CC50 (NCI-H322M): > 100000 nM
- GI50 (NCI-H460): 0.11 nM
- CC50 (NCI-H460): > 100000 nM
- GI50 (COLO 205): 0.049 nM
- CC50 (COLO 205): 24600 nM
- GI50 (HCC-2998): 2.23 nM
- CC50 (HCC-2998): 63500 nM
- GI50 (HCT-15): 0.063 nM
- CC50 (HCT-15): > 100000 nM
- GI50 (786-0): 1.32 nM
- CC50 (786-0): > 100000 nM
- GI50 (CAKI-1): 0.14 nM
- CC50 (CAKI-1): > 100000 nM
- GI50 (TK-10): 11.1 nM
- CC50 (TK-10): > 100000 nM
- GI50 (UO-31): 0.37 nM
- CC50 (UO-31): > 100000 nM
- GI50 (MCF7): 0.31 nM
- CC50 (MCF7): 51500 nM
- GI50 (MDA-MB-231/ATCC): 0.71 nM
- CC50 (MDA-MB-231/ATCC): > 100000 nM
- GI50 (HS 578T): 0.17 nM
- CC50 (HS 578T): > 100000 nM
- GI50 (T-47D): 0.96 nM
- CC50 (T-47D): > 100000 nM
- GI50 (IGROV1): 0.24 nM
- CC50 (IGROV1): 94200 nM
- GI50 (OVCAR-4): 1.81 nM
- CC50 (OVCAR-4): > 100000 nM
- GI50 (OVCAR-5): 0.93 nM
- CC50 (OVCAR-5): > 100000 nM
- GI50 (NCI/ADR-RES): 0.1 nM
- CC50 (NCI/ADR-RES): > 100000 nM
- GI50 (SK-OV-3): 0.16 nM
- CC50 (SK-OV-3): > 100000 nM
